pKi: −log10 of the molar value. Counter-ions that a name gives are not always drawn.
Molecular target: T1, human GPR39 receptor (Homo sapiens, UniProt O43194)
T1 construct: PC3 Cells, Expressing the Endogenous Human GPR39 Receptor; endogenous in cells; host or cells: PC3 (human prostate adenocarcinoma) cells
T1 sequence (O43194 1-453): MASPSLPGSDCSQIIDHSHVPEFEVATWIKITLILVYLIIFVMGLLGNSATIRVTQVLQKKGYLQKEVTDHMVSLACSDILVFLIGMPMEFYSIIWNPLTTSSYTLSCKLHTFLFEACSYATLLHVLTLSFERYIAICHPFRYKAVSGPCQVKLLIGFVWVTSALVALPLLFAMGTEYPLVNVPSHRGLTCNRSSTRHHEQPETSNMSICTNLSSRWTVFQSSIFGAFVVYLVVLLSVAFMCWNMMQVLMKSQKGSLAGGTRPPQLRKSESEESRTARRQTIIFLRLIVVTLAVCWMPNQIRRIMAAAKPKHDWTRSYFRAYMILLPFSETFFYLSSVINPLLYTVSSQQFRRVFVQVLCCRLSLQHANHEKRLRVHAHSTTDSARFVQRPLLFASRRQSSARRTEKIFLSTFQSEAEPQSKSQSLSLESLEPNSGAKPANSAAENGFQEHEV
Test: Measurement of intracellular calcium response in PC3 cells (FLIPR), antagonism of the C3 agonist response
Type: cell-based
Details: functional pKi (modified Cheng-Prusoff), inhibition of the C3 (TC-G 1008) response at EC90, 30 μM ZnCl2, read-out: fpKi activity
Method in brief: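 PC3 cells with endogenous human GPR39 were loaded with Calcium-6 and read by FLIPR, with compounds tested in buffer with 30 μM final ZnCl2 and 0.32% DMSO. Peak Ca2+ signal was scored as % inhibition of the EC90 C3 response, fitted by four-parameter logistic. Functional pKi was derived via the modified Cheng-Prusoff equation.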

SMILES	pKi
C[C@@H]1C[C@@H](C)CN(c2cc(NC(=O)C3CC3)ccc2-c2nnc(Sc3ccccc3)n2C)C1 (relative stereo) [Example 114a, N-[3-(3,5-dimethylpiperidin-1-yl)-4-(4-methyl-5-phenylsulfanyl-1,2,4-triazol-3-yl)phenyl]cyclopropanecarboxamide]	6.60 to 7.20
CN1CCN(c2ccc(CNC(=O)c3ccc(NC(=O)C4CC4)cc3N3CCCCCC3)cc2)CC1 [Example 56, 2-(azepan-1-yl)-4-(cyclopropanecarbonylamino)-N-[[4-(4-methylpiperazin-1-yl)phenyl]methyl]benzamide]	5.20 to 5.90
CCCN1CCN(C(=O)c2ccc(NC(=O)C3CC3)cc2N2CCC(C)CC2)CC1 [Example 15, N-(3-(4-methylpiperidin-1-yl)-4-(4-propylpiperazine-1-carbonyl)phenyl) cyclopropanecarboxamide]	6.60 to 7.20
O=C(Nc1ccc(C(=O)N2CCN(c3nccc4ccsc34)CC2)c(N2CCCCCC2)c1)C1CC1 [Example 33, N-[3-(azepan-1-yl)-4-(4-thieno[2,3-c]pyridin-7-ylpiperazine-1-carbonyl)phenyl]Cyclopropanecarboxamide]	5.20 to 5.90
Cc1ccn(-c2cc(NC(=O)C3CC3)ccc2C(=O)N2CCC(C(F)(F)F)CC2)n1 [Example 156]	6.60 to 7.20
Cc1nnc(-c2ccc(C(=O)N3CCN(C)CC3c3ccccc3)c(N3CCCC3)c2)o1 (racemic) [Example 123, [4-(5-methyl-1,3,4-oxadiazol-2-yl)-2-pyrrolidin-1-ylphenyl]-(4-methyl-2-phenylpiperazin-1-yl)methanone]	5.20 to 5.90
O=C(Nc1ccc(C(=O)N2CCS(=O)(=O)CC2)c(N2CCC(C(F)(F)F)C2)c1)C1CC1 (single isomer, unassigned) [Example 183a, N-[4-(1,1-dioxo-1,4-thiazinane-4-carbonyl)-3-[3r or 3S-(trifluoromethyl)pyrrolidin-1-yl]phenyl]cyclopropanecarboxamide]	≥ 7.30
CN1CCN(C(=O)c2ccc(NC(=O)C3CC3)cc2N2CC3(COC3)C2)C(c2ccccc2)C1 (centres unmarked) [Example 204, N-[4-(4-methyl-2-phenylpiperazine-1-carbonyl)-3-(2-oxa-6-azaspiro[3.3]heptan-6-yl)phenyl]cyclopropanecarboxamide]	6.00 to 6.50
O=C(Nc1ccc(C(=O)N2CCS(=O)(=O)CC2)c(N2CCC(F)(F)C2)c1)C1CC1 [Example 184, N-[3-(3,3-difluoropyrrolidin-1-yl)-4-(1,1-dioxo-1,4-thiazinane-4-carbonyl)phenyl]cyclopropanecarboxamide]	6.60 to 7.20
CN1CCN(C(=O)c2ccc(NC(=O)C3CC3)cc2N2CCCC2)C(c2ccccc2Cl)C1 (racemic) [Example 170c, N-[4-[2-(2-chlorophenyl)-4-methylpiperazine-1-carbonyl]-3-pyrrolidin-1-ylphenyl]cyclopropanecarboxamide]	≥ 7.30
CN1CCN(C(=O)c2ccc(NC(=O)C3CC3)nc2N2CCCC2)C(c2ccccc2)C1 (single isomer, unassigned) [Example 149b, (2R or 2S) N-[5-(4-methyl-2-phenylpiperazine-1-carbonyl)-6-pyrrolidin-1-ylpyridin-2-yl] cyclopropanecarboxamide]	5.20 to 5.90
CCCN1CCN(C(=O)c2ccc(NC(C)=O)cc2N2CCCCCC2)CC1 [Example 95, N-(3-(azepan-1-yl)-4-(4-propylpiperazine-1-carbonyl)phenyl)acetamide]	5.20 to 5.90
CN1CCN(C(=O)c2ccc(NC(=O)C3CC3)cc2N2CCCC2)C(c2ccc(Cl)cc2)C1 (racemic) [Example 176, N-[4-[2-(4-chlorophenyl)-4-methylpiperazine-1-carbonyl]-3-pyrrolidin-1-ylphenyl]cyclopropanecarboxamide]	6.00 to 6.50
O=C(Nc1ccc(C(=O)N2CCN(Cc3ncco3)CC2)c(N2CCCCCC2)c1)C1CC1 [Example 24, N-(3-(azepan-1-yl)-4-(4-(oxazol-2-ylmethyl)piperazine-1-carbonyl)phenyl) cyclopropanecarboxamide]	6.60 to 7.20
CN1CCN(C(=O)c2ccc(NC(=O)C3CC3)cc2N2CCCC2)C(c2cccc(Cl)c2)C1 (racemic) [Example 171c, N-[4-[2-(3-chlorophenyl)-4-methylpiperazine-1-carbonyl]-3-pyrrolidin-1-ylphenyl]cyclopropanecarboxamide]	≥ 7.30
O=C(Nc1ccc(C(=O)N2CCS(=O)(=O)CC2)c(N2CCCC(C(F)(F)F)C2)c1)C1CC1 (single isomer, unassigned) [Example 185a, N-[4-(1,1-dioxo-1,4-thiazinane-4-carbonyl)-3-[3R or 3S-(trifluoromethyl)piperidin-1-yl]phenyl]cyclopropanecarboxamide]	6.60 to 7.20
CN1CCN(C(=O)c2ccc(NC(=O)C3CC3)cc2N2CCC(C(F)(F)F)C2)C(c2ccccc2)C1 (single isomer, unassigned) [Example 199a, (2S, 3R) or (2R, 3S) or (2R, 3R) or (2S, 3S) N-[4-(4-methyl-2-phenylpiperazine-1-carbonyl)-3-[3-(trifluoromethyl)pyrrolidin-1-yl]phenyl]cyclopropanecarboxamide]	≥ 7.30
CN1CCN(C(=O)c2ccc(NC(=O)C3CC3)cc2N2CCCC2)C(c2cccs2)C1 (single isomer, unassigned) [Example 86a, N-[4-(4-methyl-2-thiophen-2-ylpiperazine-1-carbonyl)-3-pyrrolidin-1-ylphenyl]cyclopropanecarboxamide]	5.20 to 5.90
CN1CCN(C(=O)c2ccc(NC(=O)C3CC3)cc2N2CC3(CCOC3)C2)C(c2ccccc2)C1 (centres unmarked) [Example 205, N-[4-(4-methyl-2-phenylpiperazine-1-carbonyl)-3-(6-oxa-2-azaspiro[3.4]octan-2-yl)phenyl]cyclopropanecarboxamide]	6.60 to 7.20
CCCN1CCN(C(=O)c2ccc(NC(=O)C3CC3)cc2N2CCC(F)(F)CC2)CC1 [Example 7, N-(3-(4,4-difluoropiperidin-1-yl)-4-(4-propylpiperazine-1-carbonyl)phenyl) cyclopropanecarboxamide]	5.20 to 5.90
O=C(Nc1ccc(C(=O)N2CCS(=O)(=O)CC2)c(N2CCC(F)(F)CC2)c1)C1CC1 [Example 196, N-[3-(4,4-difluoropiperidin-1-yl)-4-(1,1-dioxo-1,4-thiazinane-4-carbonyl)phenyl]cyclopropanecarboxamide]	5.20 to 5.90
CC1CC(C)CN(c2cc(NC(=O)C3CC3)ccc2-c2nnc(Sc3ccccc3)n2C)C1 (centres unmarked) [Example 114c, N-[3-(3,5-dimethylpiperidin-1-yl)-4-(4-methyl-5-phenylsulfanyl-1,2,4-triazol-3-yl)phenyl]cyclopropanecarboxamide]	6.60 to 7.20
CS(=O)(=O)C1CCN(C(=O)c2ccc(NC(=O)C3CC3)cc2N2CCCC2)CC1 [Example 218, N-[4-(4-methylsulfonylpiperidine-1-carbonyl)-3-pyrrolidin-1-ylphenyl]cyclopropanecarboxamide]	5.20 to 5.90
CN1CCN(C(=O)c2ccc(NC(=O)C3CC3)cc2N2CCCC2)C(c2cccc(F)c2)C1 (racemic) [Example 88c, N-[4-[2-(3-fluorophenyl)-4-methylpiperazine-1-carbonyl]-3-pyrrolidin-1-ylphenyl]cyclopropanecarboxamide]	6.60 to 7.20
Cc1nnc(-c2ccc(C(=O)N3CCN(C)CC3c3ccccc3)c(N3CCC(C(F)(F)F)C3)c2)[nH]1 (single isomer, unassigned) [Example 177b, (2S, 3R) or (2R, 3S) or (2R, 3R) or (2S, 3S) (4-methyl-2-phenylpiperazin-1-yl)-[4-(5-methyl-4H-1,2,4-triazol-3-yl)-2-[3-(trifluoromethyl)pyrrolidin-1-yl]phenyl]methanone]	6.00 to 6.50
O=C(Nc1ccc(C(=O)N2CCS(=O)(=O)CC2)c(N2CCC3(CCC3)C2)c1)C1CC1 [Example 65, N-[3-(6-azaspiro[3.4]octan-6-yl)-4-(1,1-dioxo-1,4-thiazinane-4-carbonyl)phenyl]cyclopropanecarboxamide]	≥ 7.30
Cc1nnc(-c2ccc(C(=O)N3CCN(C)CC3c3ccccc3)c(N3CCC(C(F)(F)F)C3)c2)[nH]1 (single isomer, unassigned) [Example 177d, (2S, 3R) or (2R, 3S) or (2R, 3R) or (2S, 3S) (4-methyl-2-phenylpiperazin-1-yl)-[4-(5-methyl-4H-1,2,4-triazol-3-yl)-2-[3-(trifluoromethyl)pyrrolidin-1-yl]phenyl]methanone]	6.00 to 6.50
CN1CCN(C(=O)c2ccc(NC(=O)C3CC3)cc2N2CCCC2)C(c2ccccc2)C1 (single isomer, unassigned) [Example 62d, 2R or 2S N-[4-(4-methyl-2-phenylpiperazine-1-carbonyl)-3-pyrrolidin-1-ylphenyl]cyclopropanecarboxamide hydrochloride]	6.60 to 7.20
O=C(Nc1ccc(C(=O)N2CCS(=O)(=O)CC2)c(N2CCC(C(F)(F)F)C2)c1)C1CC1 (single isomer, unassigned) [Example 183b, N-[4-(1,1-dioxo-1,4-thiazinane-4-carbonyl)-3-[3R or 3S-(trifluoromethyl)pyrrolidin-1-yl]phenyl]cyclopropanecarboxamide]	6.60 to 7.20
